Laboratory results published in PubChem BioAssay AID2305 (GlaxoSmithKline (GSK), 2010).

test system: P. falciparum 3D7 growth, pLDH absorbance; assay: blood-stage malaria parasite growth potency – strain 3D7, dose response (AID 2305)

`Cc1cc(N[C@@H](Cc2ccccc2)C(=O)Nc2ccccc2)nc(NCCc2cccs2)n1` and `COC(=O)c1ccc(NC(=O)Nc2cccc(CCNCc3ccccc3)c2)cc1` are within 1.5-fold of each other in IC50: 800 nM for the first, 870 nM for the second.

`CC1CCCN(S(=O)(=O)c2ccc(NC(=O)c3cc(-c4ccccc4O)n[nH]3)cc2)C1` (stereo not drawn) and `CC(C)[C@H](NC(=O)c1ccc(O)c(-c2cccc(C(F)(F)F)c2)c1)C(=O)NC1CCCc2ccccc21` (stereo partly drawn) are within 1.5-fold of each other in IC50: 760 nM for the first, 930 nM for the second.

First: O=C(c1cccc(-c2noc(C(F)(F)F)n2)c1)N1CCN(c2nsc3ccccc23)CC1
Second: O=C(NCCN1CCCC1)N1CCCN(c2ncnc3cc(-c4ccc(Cl)cc4)sc23)CC1
The IC50 of the first is 6.6-fold lower: 140 nM for the first, 920 nM for the second. The first is the more potent here.

First: CC(=NN=C(N)N)c1ccc2c(ccc3ccccc32)c1
Second: NC(N)=NCCN(Cc1ccccc1)c1ccc(Cl)cc1
The IC50 of the first is 17-fold higher: 830 nM for the first, 50 nM for the second.

Compared with `CC1(C)N=C(N)N=C(N)N1OCc1cc(Cl)c(CON2C(N)=NC(N)=NC2(C)C)cc1Cl`, `C=CCc1cc(Cc2cnc(N)nc2N)cc(CCC)c1OC` is 34-fold higher in IC50: 40 nM for the first, 1360 nM for the second.

`COc1ccc2nccc([C@@H](O)CN3CCC(NC(=O)/C=C/c4ccnc5ccccc45)CC3)c2c1` and `CS(=O)(=O)Nc1ccc2[nH]cc(C3CCN(CC4CCC(NC(=O)/C=C/c5ccccc5Cl)CC4)CC3)c2c1` (stereo not drawn) are within 1.5-fold of each other in IC50: 940 nM for the first, 790 nM for the second.

Going from `Cc1cc(=O)[nH]c(NC#N)n1` to `Cc1cc(N(C)C)nc(Nc2ccc(NC(=O)C3CCCCC3)cc2)n1`, the IC50 rises from 170 nM to 1110 nM (6.5-fold).

Compared with `O=C(O)c1cc(C(F)(F)F)co1`, `O=C(/C=C/c1ccc(Cl)c(Cl)c1)NCCCCCN1CCC(NC(=O)Nc2ccc(C(F)(F)F)cc2)C1` (stereo not drawn) is 1.6-fold lower in IC50: 830 nM for the first, 510 nM for the second.

`CCOc1cc(C(C)C)ccc1N1CCN(CCCCNC(=O)c2ccc(NC(=O)c3ccc(Cl)cc3)cc2)CC1` and `COc1ccc(-c2cccc(NC(=O)c3ccc(Cl)cc3)c2)cc1CN1CCCN(C)CC1` are within 1.5-fold of each other in IC50: 420 nM for the first, 390 nM for the second.

Going from `CCCNC(=O)Nc1ccc(N(C)c2ccnc(NC3CC3)n2)cc1` to `CCc1ccc(CN2CCC(NC(=O)c3cc(-c4ccc(N(C)C)cc4)cs3)C2)cc1` (stereo not drawn), the IC50 rises from 620 nM to 1440 nM (2.3-fold).

Going from `OC1CCCN(Cc2ccc(-c3cccc(-c4nc5ccc(F)cc5[nH]4)c3)cc2)C1` (stereo not drawn) to `Oc1cccc(-c2nc3ccc(C4=N[C@@H]5CCCC[C@H]5N4)cc3[nH]2)c1`, the IC50 falls from 870 nM to 530 nM (1.6-fold).

Going from `CCOC(=O)C1=C(C)NC2=C(C(=O)CC(C)(C)C2)C1c1ccc(Cl)cc1` (stereo not drawn) to `Cc1sc2ccc(Cl)cc2c1S(=O)(=O)Nc1ccc2nccc(N3C[C@@H](C)N[C@@H](C)C3)c2c1`, the IC50 falls from 920 nM to 110 nM (8.4-fold). The second is the more potent here.

Going from `Cc1ccccc1C1CCN(C2CCC(NC(=O)c3ccc4c(c3)-c3nocc3C(C)O4)CC2)CC1` (stereo not drawn) to `O=C(NC1CCC(N2CCC(c3ccccc3C(F)(F)F)CC2)CC1)c1cc2ccccc2[nH]1` (stereo not drawn), the IC50 falls from 1270 nM to 520 nM (2.4-fold).

`CC(C)(C)OC(=O)NCc1ccc(Nc2nnc(-c3cccc(OCC(=O)NCc4cc(C(F)(F)F)cc(C(F)(F)F)c4)c3)o2)cc1` and `O=C(NCCNc1ccnc(NCc2ccc(F)cc2)n1)c1cc2ccccc2s1` are within 1.5-fold of each other in IC50: 830 nM for the first, 700 nM for the second.

`COc1cc(Nc2nccc(N3CCC(NC(=O)c4cc5ccccc5s4)C3)n2)cc(OC)c1OC` (stereo not drawn) and `COc1cc2ccccc2c(CNCCCCCCNCc2c(OC)c(OC)cc3ccccc23)c1OC` are within 1.5-fold of each other in IC50: 790 nM for the first, 1110 nM for the second.

`O=C(Nc1ccc(OC2CCN(Cc3ccsc3)CC2)c(Cl)c1)c1ccco1` and `CN(C)c1ccc(CN2CCC(NC(=O)c3ccc(-c4cccc(Cl)c4)s3)CC2)cc1` are within 1.5-fold of each other in IC50: 780 nM for the first, 920 nM for the second.

Going from `CC(C)N1CCN(C(=O)c2ccc(CN(C)CCCN3CCN(c4cccc(Cl)c4Cl)CC3)s2)CC1` to `CN1CCN(CC2(Nc3nccc(NCc4ccc(Cl)cc4Cl)n3)CCCCC2)CC1`, the IC50 falls from 990 nM to 590 nM (1.7-fold). The second is the more potent here.

Going from `COc1cc(F)c2ncc(Cl)c([C@H](O)CN3CCC(NCc4ccc5c(n4)NC(=O)CO5)CC3)c2c1` to `COc1ccc(-c2cccc(NC(=O)c3ccc(F)cc3)c2)cc1CN1CCCN(C)CC1`, the IC50 rises from 160 nM to 830 nM (5.2-fold). The first is the more potent here.

First: O=C(Nc1cccnc1)c1cc(-c2cccnc2)nc2ccc(Cl)cc12
Second: Cc1ccc(Oc2ncccc2C(=O)Nc2cccc3cccnc23)c(C)c1
The IC50 of the first is 4.8-fold higher: 1060 nM for the first, 220 nM for the second.

First: CC(Nc1ccnc2cc(Cl)ccc12)c1ccc(S(N)(=O)=O)cc1 (stereo not drawn)
Second: Cn1c(Nc2cc(C(C)(C)C)on2)nc2cc(Nc3ccnc(Nc4cccc(CS(C)(=O)=O)c4)n3)ccc21
The IC50 of the first is 1.6-fold higher: 930 nM for the first, 570 nM for the second. The second is the more potent here.

First: O=C(/C=C/c1c[nH]c2ccccc12)NCCCCCN1CCC(c2c[nH]c3ccccc23)CC1
Second: CCOC(=O)c1cc(C(=O)NCCCCN2CCC(c3ccc(CC)cc3OCC)CC2)ccc1-c1ccc(C(F)(F)F)cc1
The IC50 of the first is 1.5-fold higher: 930 nM for the first, 610 nM for the second.

First: Cc1cccc2[nH]c(-c3cccc(-c4ccc(C(=O)NCCc5ccc(O)c(=O)[nH]5)cc4)c3)nc12
Second: CS(=O)(=O)Cc1ccc(Nc2nccc(-c3c(-c4cccc(NC(=O)c5c(F)cccc5F)c4)nn4ncccc34)n2)cc1
The IC50 of the first is 7.4-fold higher: 1190 nM for the first, 160 nM for the second.

`Fc1ccc(-c2cc(NCCCn3ccnc3)nc(-c3cccnc3)n2)cc1` and `CC(C)(C)c1ccccc1OC(=O)c1ccccc1` are within 1.5-fold of each other in IC50: 970 nM for the first, 740 nM for the second.

`COc1ccc(-c2csc(NC(=O)CCC(=O)O)n2)cc1OC` and `CCc1c(CCNC/C=C/C=C/CNCCc2ccc(OC)c(OC)c2CC)ccc(OC)c1OC` are within 1.5-fold of each other in IC50: 840 nM for the first, 970 nM for the second.
